The text below walks through data of patent publication US20120101078A1, “AMIDE DERIVATIVES AS NEUROPEPTIDE Y5 RECEPTOR LIGANDS” (H. Lundbrck A/S, priority 2009, published 2012).

For experiment [1], the target named is T1, NPY Y5 receptor (Homo sapiens, UniProt Q15761).
T1 sequence (Q15761 1-445): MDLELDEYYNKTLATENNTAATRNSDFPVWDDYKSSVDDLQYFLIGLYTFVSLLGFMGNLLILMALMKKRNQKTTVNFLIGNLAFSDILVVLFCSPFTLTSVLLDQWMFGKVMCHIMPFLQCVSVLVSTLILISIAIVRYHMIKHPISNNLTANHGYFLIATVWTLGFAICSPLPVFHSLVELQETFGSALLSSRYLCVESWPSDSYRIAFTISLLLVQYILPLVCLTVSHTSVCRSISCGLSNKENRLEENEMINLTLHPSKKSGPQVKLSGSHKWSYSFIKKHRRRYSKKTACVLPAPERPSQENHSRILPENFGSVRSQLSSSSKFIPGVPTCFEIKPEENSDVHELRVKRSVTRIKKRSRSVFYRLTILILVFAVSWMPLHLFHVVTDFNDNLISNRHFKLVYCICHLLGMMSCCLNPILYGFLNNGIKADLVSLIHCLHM
The experiment is described as follows: Radioligand (125I-PYY) binding to membrane suspensions, cloned human NPY Y5 receptor. More on the design: expressed in transfected cells; host or cells: LM(tk-) cells (typically). Particulars: 125I-PYY competition, membranes of transfected LM(tk-) cells; read-out: Ki, binding affinity of selected compounds. On the procedure: (§1) The pharmacological properties of the compounds of the present invention were evaluated at the cloned human NPY Y5 receptor using the protocols disclosed in U.S. Pat. No. 6,124,331, the contents of which are hereby incorporated by reference. The procedures for cell culture, transient transfection and membrane harvest, which are well known in the art, are described therein
Briefly, membrane suspensions from transfected cells (typically expressed in LM(tk-) cells) and ^125I-PYY radioligand (PerkinElmer, Waltham, Mass.) were diluted in binding buffer supplemented with 0.1% bovine serum albumin to yield an optimal membrane protein concentration so that ^125I-PYY bound by membranes in the assay was less than 10% of ^125I-PYY delivered to the sample (100,000 dpm/sample=0.08 nM for competition binding assays). Test compounds were diluted to desired concentrations with supplemented binding buffer in the presence of 30% DMSO. The binding assay was performed in 96-well polypropylene microtiter plates by mixing 125I-PYY test compound (25 μL), and finally, membrane suspensions (200 μL). Final DMSO=3%. Samples were incubated in at room temperature for about 120 min. Incubations were terminated by filtration over Whatman GF/C filters (pre-coated with 1% polyethyleneimine and air-dried before use), followed by washing with ice-cold binding buffer. Filter-trapped membranes were impregnated with MeltiLex solid scintillant (Wallac, Turku, Finland) and counted for ^125I-PYY in a Wallac MicroBeta Trilux. Non-specific binding was defined by 1000 nM porcine NPY. Specific binding was typically 80%; most non-specific binding was associated with the filter. Binding data were analyzed using nonlinear regression and statistical techniques available in the GraphPAD Prism package (San Diego, Calif.).

Experiment [2] concerns the target T1, NPY Y5 receptor. The experiment is described as follows: NPY Y5-dependent inhibition of forskolin-stimulated cAMP accumulation. Particulars: stably transfected cells, NPY then forskolin 10 uM, cAMP by HTRF. More on the design: expressed in transfected cells. The experiment is classed as cell-based. On the procedure:
as §1
Stably transfected cells were seeded into 96-well microtiter plates and cultured until confluent. To reduce the potential for receptor desensitization, the serum component of the media was reduced to 1.5% for 4 to 16 hours before the assay. Cells were washed in Hank's buffered saline, or HBS (150 mM NaCl, 20 mM HEPES, 1 mM CaCl2, 5 mM KCl, 1 mM MgCl2, and 10 mM glucose) supplemented with 0.1% bovine serum albumin plus 100 uM IBMX. […] The assay was then terminated and intracellular cAMP was quantified by with highthroughput time-resolved flourometry (HTRF kit from CisBio, Bedford, Mass.). The effect of the test compound on agonist (NPY) activity were analyzed using nonlinear regression and statistical techniques available in the GraphPAD Prism package (San Diego, Calif.). The compounds of Example 2a and 5b were determined to function as an antagonist at the NPY Y5 receptor.

Another experiment relates to Wistar rats. Particulars: Wistar rats exposed to chronic mild stress, chronic dosing 3, 10 mg/kg/day, i.p.; cited from earlier work.
Another experiment deals with Sprague Dawley rats. Particulars: 3-30 mg/kg, p.o., acute or chronic treatment; cited from earlier work.
In the next experiment the target is T2, Y5 receptor (Rattus norvegicus, UniProt Q63634).
T2 construct: host or cells: animals in vivo (i.c.v. injection of Y5 agonist)
T2 sequence (Q63634 1-445): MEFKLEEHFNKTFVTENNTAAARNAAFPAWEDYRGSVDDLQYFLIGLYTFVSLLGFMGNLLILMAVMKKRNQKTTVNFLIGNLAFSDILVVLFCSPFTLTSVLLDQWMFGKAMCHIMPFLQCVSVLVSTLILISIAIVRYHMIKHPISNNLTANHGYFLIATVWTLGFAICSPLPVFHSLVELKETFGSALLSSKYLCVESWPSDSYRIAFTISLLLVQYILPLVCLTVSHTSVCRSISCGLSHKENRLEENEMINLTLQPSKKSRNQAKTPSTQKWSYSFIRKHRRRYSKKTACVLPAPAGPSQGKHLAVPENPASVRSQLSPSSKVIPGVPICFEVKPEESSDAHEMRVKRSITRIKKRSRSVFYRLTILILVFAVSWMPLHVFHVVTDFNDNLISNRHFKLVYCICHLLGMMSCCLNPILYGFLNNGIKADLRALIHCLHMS
Particulars: increase elicited by i.c.v. injection of cPP(1-7), NPY(19-23),Ala31,Aib32, Gln34]; cited from earlier work.

Experiment [3] has as its system Flinders Sensitive Line rats. The note with it: chronic dosing 10 mg/kg/day, i.p.; cited from earlier work.
The subject of experiment [4] is Flinders Sensitive Line rats. The note with it: chronic dosing 10 mg/kg/day, i.p.; cited from earlier work. The source holds these as a separate data set.

Usually Ki stands for the equilibrium dissociation constant of an inhibitor or competing ligand from its target. With `O=C1CCCN1[C@H]1CC[C@H](C(=O)Nc2ccc(-c3cc(F)cc(F)c3)cn2)CC1` [Example 1a, trans-4-(2-Oxo-pyrrolidin-1-yl)-cyclohexanecarboxylic acid [5-(3,5-difluoro-phenyl)-pyridin-2-yl]-amide], the Ki at NPY Y5 receptor [1] is 720 nM.

Consider `O=C1OCCN1[C@H]1CC[C@@H](C(=O)Nc2ccc(-c3cc(F)cc(F)c3)cn2)CC1` [Example 2a, cis-4-(2-Oxo-oxazolidin-3-yl)-cyclohexanecarboxylic acid [5-(3,5-difluoro-phenyl)-pyridin-2-yl]-amide], for which the “function at the NPY Y5 receptor (effect on NPY agonist activity)” value on NPY Y5 receptor [2] is “antagonist”. Also, at NPY Y5 receptor [1], the Ki was 8 nM. With `O=C1OCCCN1[C@H]1CC[C@@H](C(=O)Nc2ccc(-c3cc(F)cc(F)c3)cn2)CC1` [Example 3a, cis-4-(2-Oxo-perhydro-1,3-oxazin-3-yl)-cyclohexanecarboxylic acid [5-(3,5-difluoro-phenyl)-pyridin-2-yl]-amide], the Ki at NPY Y5 receptor [1] turned out to be 6 nM. Still for that read-out and setting: as for `O=C1NCCCN1[C@H]1CC[C@@H](C(=O)Nc2ccc(-c3cc(F)cc(F)c3)cn2)CC1` [Example 4a, cis-4-(2-Oxo-tetrahydro-pyrimidin-1-yl)-cyclohexanecarboxylic acid [5-(3,5-difluoro-phenyl)-pyridin-2-yl]-amide], the figure is 9 nM; as for `CN1CCCN([C@H]2CC[C@@H](C(=O)Nc3ccc(-c4cc(F)cc(F)c4)cn3)CC2)C1=O` [Example 5a, cis-4-(3-Methyl-2-oxotetrahydro-pyrimidin-1-yl)-cyclohexanecarboxylic acid [5-(3,5-difluoro-phenyl)-pyridin-2-yl]-amide], 12 nM. With `CN1CCN([C@H]2CC[C@@H](C(=O)Nc3ccc(-c4cc(F)cc(F)c4)cn3)CC2)C1=O` [Example 5b, cis-4-(3-Methyl-2-oxo-imidazolidin-1-yl)-cyclohexanecarboxylic acid [5-(3,5-difluoro-phenyl)-pridin-2-yl]-amide], the “function at the NPY Y5 receptor (effect on NPY agonist activity)” value at NPY Y5 receptor [2] is “antagonist”. Further, the Ki on NPY Y5 receptor [1] was found to be 3.8 nM. In the case of `O=C1COCCN1[C@H]1CC[C@@H](C(=O)Nc2ccc(-c3cc(F)cc(F)c3)cn2)CC1` [Example 6a, cis-4-(3-Oxo-morpholin-4-yl)-cyclohexanecarboxylic acid [5-(3,5-difluoro-phenyl)-pyridin-2-yl]-amide], the Ki on NPY Y5 receptor [1] came out at 8 nM. Take `CS(=O)(=O)NCC1CCC(Nc2nc3c(s2)CCSc2ccccc2-3)CC1` (stereo not drawn) [Lu AA33810]: the “effect on stress-induced decrease in sucrose consumption” value in the experiment with Wistar rats is on record as “antidepressant-like activity”. Also, the “effect in social interaction test” value in the experiment with Sprague Dawley rats was “anxiolytic-like effects”. On Y5 receptor, the “effect on increase in plasma ACTH” value was “attenuated increases” and the “effect on increase in plasma cortisol” value was “attenuated increases”. Also, the “effect in social interaction test” value in experiment [3] is “anxiolytic-like effects”. Besides, in experiment [4], the “effect in forced swim test” value is reported as “antidepressant-like effects”.
